Here are results for 2 compounds from patent publication EP0167553B1, “NEW THERAPEUTICAL APPLICATION OF AN INDANE DIONE DERIVATIVE AND PHARMACEUTICAL COMPOSITIONS INTENDED TO SAID UTILIZATION” (priority 1983, dated 1985).

Data set [1] concerns Rats: Wistar femelles. As to the kind of experiment: Atherogenic diet (modified Aubert technique): biochemical examinations and atherogenic risk. On the set-up: score général Biochimie / Risque athérogène Score Total: scale not given here. As to conditions: 100 mg/kg. In kind it is in vivo, Rat Wistar. An excerpt:
(§1) La technique utilisée est celle, légèrement modifiée, de AUBERT D., FERAUD J.C., LACAZE B., PEPINO., PANAK E. et PODESTA M. "Athérogénèse expérimentale chez le Rat Wistar". ATHEROSCLEROSIS 2Q (1974) 263 - 280.
(§2) • - Rats: Wistar femelles, E.O.P.S. en provenance de l'élevage EVIC-CEBA. • - Poids corporel: 160 180 g au départ de l'étude • - Alimentation: UAR A03, enrichi en cholestérol (0,5 %) et en Acide chloique (0,5 %). • - Eau de boisson: eau de ville. • - 15 animaux par lot et par cage MAKROLON SAFI® de 59 x 38,5 cm sur litière de copeaux de bois blanc dépoussiérés. • - Cages placées dans un module animalerie climatisé (20°C * 1°C), à l'humidité constante (50 % ± 10 %). Durée d'éclairement: 12 heures par jour (7 h à 19 h). • - Administration des produits: Après 15 jours de régime athéromateux, on leur administre par voie orale pendant 4 jours 250 000 Ul/kg de vitamine D2 (Stérogyl 15 H) en solution dans l'huile d'olive. On administre ensuite les produits à étudier pendant 4 semaines dès la fin de l'administration de l'agent lésionnel.
(§3) L'étude porte sur 5 Lots de 15 rats (tableau N° IV)
En fin d'étude, on pratique sur tous les animaux survivants les examens suivants: • - Cholestérol total, • - Cholestérol estérifié, • - Cholestérol HDL • - Cholestérol LDL (évaluation), • - Lipides totaux, • - Triglycérides.

Data set [2] deals with Rats: Wistar femelles. As to the kind of experiment: Atherogenic diet (modified Aubert technique): macroscopic examination of the aorta. In kind it is in vivo, Rat Wistar. The following applies: 100 mg/kg.
Description: as §1, §2
En fin d'étude, tous les animaux sont sacrifiés par ponction subtotale du sang à l'aorte abdominale après anesthésie au pentobarbital sodique. On prélève le coeur, le foie et l'aorte sur laquelle on effectue la cotation du pouvoir athérogène. Pour ce faire, les aortes sont coupées longitudinalement puis étalées pour permettre une vue d'ensemble du revêtement endothélial depuis les valvules aortiques jusqu'à la bifurcation du tronc coeliaque (segment inférieur de l'aorte thoracique).
L'aorte est séparée en 2 zones: • - Zone 1: Valvules aortiques - premières artères intercostales • - Zone 2: premières artères intercostales - bifurcation du tronc coeliaque.
L'intensité des dépôts athéromateux est évaluée selon les critères suivants: • - Stade 0: Absence de dépôts • - Stade 1: Dépôts discrets ([…]) peu nombreux • - Stade 2: Dépôts discrets nombreux • - Stade 3: Dépôts importants (> 1 mm) nombreux • - Stade 4: Dépôts très importants ou très nombreux mais laissant quelques zones non infiltrées. • - Stade 5: Dépôts sur tout l'endothélium.
Deux paramètres sont à prendre en considération: • 1. Le nombre d'animaux présentant des lésions macroscopiques, dont le pourcentage d'animaux atteints. • 2. L'intensité des lésions observées cotées selon les indications fournies précédemment.

For data set [3], the system named is Rats: Wistar femelles. Kind of data set: Atherogenic diet (modified Aubert technique): histopathological examination. Type of data set: in vivo, Rat Wistar. As to conditions: 100 mg/kg; three parameters scored relative to Clofibrate.
Description: as §1, §2
Les aortes, les foies et les coeurs sont fixés au Bouitaqueux et inclus à la paraffine après passage par les alcools à concentration croissante et par le toluène.
Les foies sont colorés par la technique à l'hématéine-éosine. Les aortes sont colorées par: • - la technique à l'orcéine - vert lumière afin de mettre en évidence les altérations structurales des lames élastiques. • - la technique à l'acide périodique plus réactif de Schiff pour déceler les dépôts de mucopolysaccharides, • - la technique à l'hématéine plus éosine afin de mettre en évidence les dépôts de calcium.
L'intensité des altérations observées et le degré d'athéromatose sont indiquées par l'un des signes:
• - Pas d'athéromatose 0 • = Très léger degré d'athéromatose 0,5 • + Léger degré d'athéromatose 1 • ++ Moyen degré d'athéromatose 2 • +++Important degré d'athéromatose 3
Les zones athéromateuses sont dénombrées sur une longueur identique pour chacune des aortes examinées. […]

Data set [4] relates to Rats: Wistar femelles. As to the kind of experiment: Atherogenic diet (modified Aubert technique): mortality, body weight, tolerance, overall score. Type of data set: in vivo, Rat Wistar. As to conditions: 100 mg/kg. As to the method: as §2, §3
• - Le comportement et l'[…] pondérale des animaux sont étudiés par l'observation quotidienne et les pesées hebdomadaires. L'étude de l'évolution pondérale ne montre pas de différence significative entre les différents lots. C'est un indice de bonne tolérance du traitement. • - La moralité est notée dans chaque lot; elle peut atteindre 30 % des animaux ce qui nécessite des lots de 15 animaux. L'administration chronique de 100 mg/kg de Clofibrate correspond à la dose maximale tolérée par le Rat sain selon nos expériences personnelles.
Les scores obtenus par les différents produits étudiés sont les suivants (Tableau V)

The next data set has as its system Rat Wistar. As to the kind of experiment: Hyperlipidaemia induced by Triton WR 1339 injection. In kind it is in vivo. On the set-up: Triglycérides, score par rapport au Procétofène 250 mg/kg: scale not given here. The source says:
L'hyperlipidémie par injection de Triton WR 1339 (marque de fabrique), réalisée chez le Rat Wistar, est antagonisée ou diminuée par l'administration d'agents hypolipémiants.
• - Rats Wistar mâles. • - Poids corporel: 150 -180 grammes. • - Animaux E.O.P.S. (Exempts d'Organisme Pathogène Spécifique). • - Alimentation UAR A04 • - Eau de boisson à volonté • - 6 animaux par lot de traitement et par cage MAKROLON SAFI (marque de fabrique) 60 X 40 cm, sur litière de copeaux de bois dépoussiérés • - Cages placées dans un module animalerie climatisé (19 à 21°C) à degré hygrométrique constant (40 à 60 p.100), dans lequel l'air est renouvelé 10 fois par heure, 12 heures d'éclairement par jour.
• . - 18 h: mise à jeun. • . Temps 0 - administration du Triton WR 1339® (400 mg/kg IP.). • . + 10 mn: administration du produit étudié. • - + 6 h: 1er prélèvement sanguin au sinus rétro-orbitaire. • . + 24 h: 2ème prélèvement sanguin au sinus rétro-orbitaire.
L'essai comporte 8 lots dont un lot témoin (animaux sains) et un lot témoin triton (Tableau I).

Setting [5] is: 4 weeks, score relative to Clofibrate (Base 1).
Setting [6] is: 250 mg/kg, 6 heures after Triton.
Setting [7] is: 250 mg/kg, 24 heures after Triton.
[8] abbreviates: 500 mg/kg, 6 heures after Triton.
Where [9] appears, read: 500 mg/kg, 24 heures after Triton.

Turning to `CC(C)OC(=O)C(C)(C)Oc1ccc(C(=O)c2ccc(Cl)cc2)cc1` [Fenclofibrate], in the data set with Rats: Wistar femelles [1], the “Cholesterol LDL Cholesterol HDL Score/Clofibrate” value is on record as 0.16, the “Cholesterol T/ Cholesterol HDL Score/Clofibrate” value came to 0.07 and the “Risque athérogène Score Total” value came to 0.23. Moreover, in the data set on Rats: Wistar femelles [1] (setting [5]), the “Cholesterol E Score” value came out at 0.40, the “Cholesterol HDL Score” value amounted to 0.04, the “Cholesterol LDL Score” value worked out at 0.16 and the “Cholesterol T Score” value was 0.02. For the same compound, in the data set with Rats: Wistar femelles [1] (setting [5]), the “Lipides totaux Score” value is 0.29. In addition, in the data set with Rats: Wistar femelles [1] (atherogenic risk ratio), the “Cholesterol LDL Cholesterol HDL Score” value amounted to 21.44 and the “Cholesterol T/ Cholesterol HDL Score” value came out at 25.32. Also, in the data set with Rats: Wistar femelles [1] (sum of the individual biochemical scores), the “score général Biochimie” value came to 1.98. Further, in the data set on Rats: Wistar femelles [2], the “Animaux Atteints Score Clofibrate” value is listed as 0.92, the “Intensité des lésions Score Clofibrate” value is 1.25 and the “Observations Macroscopiques Score Total” value worked out at 2.17. For the same compound, the “Animaux Atteints %” value in the data set on Rats: Wistar femelles [2] (animals with macroscopic lesions) turned out to be 83.33%. In addition, in the data set with Rats: Wistar femelles [2] (scale Stade 0 to Stade 5), the “Intensité des lésions Cotation” value is 1.83. In addition, the Histologie score with Rats: Wistar femelles [3] was 2.13. Also, the “taux de mortalité” value with Rats: Wistar femelles [4] (lots of 15 rats on atherogenic diet) is 3/15. Besides, in the data set with Rats: Wistar femelles [4] (sum of Biochimie, Risque athérogène, Macroscopie, Histologie), the “Score Total” value was found to be 6.51.
Consider `CC(C)OC(=O)C(C)(C)Oc1ccc(C(=O)c2ccc(Cl)cc2)cc1` [Procétofène, reference compound], for which, in the data set on Rat Wistar (setting [6]), the “Chol. HDL/ LDL, score par rapport au Procétofène 250 mg/kg” value (shortened to “Chol. HDL/ LDL”) is given as 1.00; the “Chol. Total, score par rapport au Procétofène 250 mg/kg” value (shortened to “Chol. Total”) is recorded as 1.00; the “Lipides Totaux, score par rapport au Procétofène 250 mg/kg” value is recorded as 1.00; the “Score Total par rapport au Procétofène 250 mg/kg” value was 4.00. For the same compound, the “Triglycérides, score par rapport au Procétofène 250 mg/kg” value with Rat Wistar (setting [6]) stood at 1.00. In the data set on Rat Wistar (setting [7]), the “Chol. HDL/ LDL” value came to 1.00; the “Chol. Total” value is reported as 1.00; the “Lipides Total, score par rapport au Procétofène 250 mg/kg” value stood at 1.00; the “Score Total par rapport au Procétofène 250 mg/kg” value came out at 4.00. Besides, the “Triglycérides, score par rapport au Procétofène 250 mg/kg” value in the data set on Rat Wistar (setting [7]) turned out to be 1.00. In addition, in the data set with Rat Wistar (setting [8]), the “Chol. HDL/ LDL” value is on record as 1.53; the “Chol. Total” value amounted to 1.65; the “Lipides Totaux, score par rapport au Procétofène 250 mg/kg” value came out at 1.65; the “Score Total par rapport au Procétofène 250 mg/kg” value is given as 5.12. In addition, in the data set on Rat Wistar (setting [9]), the “Chol. HDL/ LDL” value worked out at 0.30; the “Lipides Total, score par rapport au Procétofène 250 mg/kg” value amounted to 0.85; the “Score Total par rapport au Procétofène 250 mg/kg” value turned out to be 3.33.
